Data taken from BindingDB's records for patent WO2022070071 (JANSSEN BIOTECH, INC., 2022).

What follows are compounds tested against Dihydroorotate dehydrogenase (quinone), mitochondrial (Homo sapiens, UniProt Q02127) (assay: DHODH enzymatic assay).
Method: To detect DHODH enzyme activities, dichloroindophenol (DCIP) is added as the final electron acceptor in the assay. DCIP can accept electrons from the reduced coenzyme Q generated in the assay, or from dihydroorotate (DHO) via FMN by binding presumably to the ubiquinone pocket. […] The assay buffer contained […], pH 7.5, 150 mM NaCl, 0.5 mM EDTA, and 0.1% Triton X-100 in MilliQ water. Substrate consisting of 20 mM DHO, 5mM CoQ6, and 1mM DCIP in assay buffer, initiates the reaction. […] Absorbance measurements were obtained using the BMG Phera Star plate-reading spectrophotomer. Purified human DHODH was purchased from Proteros (cat. No. PR-0044). Chemicals were purchased from Sigma-Aldrich, Teknova, and Avanti Polar Lipids. Liquid handling was performed using Labcyte Echo and Formulatrix Tempest.

Sequence of Dihydroorotate dehydrogenase (quinone), mitochondrial (Q02127 whole entry): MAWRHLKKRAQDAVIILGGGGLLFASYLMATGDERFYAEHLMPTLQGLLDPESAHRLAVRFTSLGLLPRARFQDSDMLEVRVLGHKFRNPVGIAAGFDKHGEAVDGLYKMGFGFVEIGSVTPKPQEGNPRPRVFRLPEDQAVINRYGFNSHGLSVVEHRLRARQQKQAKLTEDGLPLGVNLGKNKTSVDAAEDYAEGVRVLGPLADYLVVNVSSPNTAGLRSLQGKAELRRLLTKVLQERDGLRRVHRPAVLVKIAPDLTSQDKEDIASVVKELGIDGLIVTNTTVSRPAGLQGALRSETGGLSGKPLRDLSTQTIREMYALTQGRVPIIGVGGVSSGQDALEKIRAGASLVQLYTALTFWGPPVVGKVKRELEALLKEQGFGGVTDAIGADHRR

SMILES	IC50 [nM]
Cc1n[nH]c(C(F)(F)F)c1-c1cc(C(C)C)c2cc(-c3cn(C)c(C(C)(C)O)n3)c(F)cn2c1=O [WO2022070071, Example 6]	4.07
Cc1ccnc(Cl)c1-c1cc(C(C)C)c2cc(-c3cn(C)c(C(C)(C)O)n3)c(F)cn2c1=O [WO2022070071, Example 8]	13
Cc1ccnc(Cl)c1-c1cc(C(C)C)c2cc(-c3nc(C(C)(C)O)n(C)n3)c(F)cn2c1=O [WO2022070071, Example 9]	13

The next compounds have a lower IC50 than those just listed; values first:

IC50 [nM]	SMILES
2.69	Cc1n[nH]c(Cl)c1-c1cc(C(C)C)c2cc(-c3cn(C)c(C(C)(C)O)n3)c(F)cn2c1=O [WO2022070071, Example 4]
2.51	Cc1n[nH]c(C(F)(F)F)c1-c1cc(C(C)C)c2cc(-c3nc(C(C)(C)O)n(C)n3)c(F)cn2c1=O [WO2022070071, Example 7]
2.11	Cc1ccccc1-c1cc(C(C)C)c2cc(-c3cn(C)c(C(C)(C)O)n3)c(F)cn2c1=O [WO2022070071, Example 1]
2.1	Cc1n[nH]c(Cl)c1-c1cc(C(C)C)c2cc(-c3nc(C(C)(C)O)n(C)n3)c(F)cn2c1=O [WO2022070071, Example 5]
